Experimental data taken from publication PMC9026348, “Investigation of Direct and Retro Chromone-2-Carboxamides Based Analogs of Pseudomonas aeruginosa Quorum Sensing Signal as New Anti-Biofilm Agents” (Pharmaceuticals, 2022).

Columns and labels:
[1] = test system: P. aeruginosa PAO1 biofilms; assay: Anti-biofilm assay, CFU count of adherent cells; assay type: cell-based, Pseudomonas aeruginosa PAO1; conditions: PAO1, 48 h, relative to untreated control, mean ± SD of 3 independent experiments; for inhibition at 50 µM: Pseudomonas aeruginosa; for Biofilm Inhibition (%): 50 µM
Method: The effect of all compounds was evaluated on PAO1 biofilms, grown in 24-well microplates. The antibiofilm assay used in this study is based on a low nutritive culture medium, a rather weak inoculum (10^2 CFU/mL), and a regular renewal of the culture medium (at 2, 4, 6, 20, and 24 h), in order to promote the growth of adhered cells as biofilm, instead of the growth and/or sedimentation of planktonic cells. Since the QS systems are involved in early steps of biofilm formation, compounds were added at t0. After incubation, viable cells were quantified by CFU plate counts.
The rather low concentration of 50 µM used was set up according to detected concentrations of QS molecules in CF patients’ lungs. […] For all compounds, MICs/MBCs were higher than 500 µM. To be considered active, a threshold of 50% inhibition, relative to the untreated control, was applied.
Pseudomonas aeruginosa PAO1 was obtained from the Institute Pasteur Collection (CIP 104116, Paris, France), frozen and kept at -80 °C in a 20% (v/v) glycerol stock solution. Before each experiment, two successive subcultures were prepared on trypticase soy agar and incubated for 24 h under aerobic conditions at 37 °C. Before each experiment, bacterial suspensions of 10^8 CFU/mL were prepared by adjusting OD at 640 nm to 0.150.
The bacterial enumerations were done on trypticase soy agar. The minimum biofilm broth used for biofilm formation (MBB) was prepared in sterile distilled water (SDW) and was composed of MgSO4·7H2O (0.02 g/L), FeSO4·7H2O (0.5 mg/L), Na2HPO4 (1.25 g/L), KH2PO4 (0.5 g/L), (NH4)2SO4 (0.1 g/L), and glucose (0.05 g/L) from Merck-Sigma (France).
The enumeration of adhered bacteria was carried-out according to Campanac et al. with some modifications. P. aeruginosa biofilms were grown in a 24-wells microtiter plate for 48 h. The culture medium was composed of BBM 2X (1.0 mL) and 1.0 mL of a 10^−4 M solution of tested compound dissolved in SDW (final concentration 50 µM). After inoculation with 100 µL of a 10^2 CFU/mL bacterial suspension of P. aeruginosa PAO1 (final inoculum 10 CFU/well), the microtiter plate was incubated à 37 °C. After 2 h, 4 h, 6 h, 20 h and 24 h of incubation, each well was emptied, rinsed twice with SDW, and the culture medium was renewed. After 48 h of culture, the biofilm was rinsed twice with 2.0 mL SDW. The bottom of each well was scraped with a sterile spatula and suspended in 1.0 mL of SDW. The content of each well was diluted by serial dilutions in test tubes. After inclusion of 0.9 mL of each dilution in trypticase soy agar, Petri dishes were incubated for 48 h at 37 °C. The number of colony forming units (CFUs) was counted and the inhibition percentage calculated using the following formula: Inhibition(%)=Adhered cellsControl(CFU/mL)−Adhered cellsSample(CFU/mL) /Adhered cellsControl×100

Cytotoxicity, MTT assay = assay type: cell-based; conditions: African green monkey, Vero cells (ATCC CCL-81)
Method: Cells were incubated with different concentrations of compounds 3e, 3′a, 6a, 6b, 6d, 6f, 6k, 6s, 6n, and 6o, varying from 3.9 µM to 1.0 mM. The relative cell viabilities were determined after 24 h using the MTT assay and compared to the untreated control (100% viability). A 5% Tween solution was used as positive control. Figure 5 reports the viability % for all evaluated concentrations.
Evaluation of compounds’ cytotoxicity was performed using the MTT (3-(4,5-dimethylthiazol-2-yl)-2,5-diphenyltetrazolium bromide) colorimetric assay, based on the Mosmann et al. procedure with some modifications. […] Stock solutions of each compound prepared in Dulbeccos’s phosphate-buffered saline (D-PBS, Sigma, St. Quentin Fallavier, France) at a concentration of 2 mM were subjected to 2-fold serial dilutions with RPMI medium.
96-wells microtiter plates were first filled with 100 µL of a cell suspension prepared in RPMI medium (2 × 10^4 cells/100 µL). […] A third control was performed with a non-inoculated culture medium and compounds solution to validate the absence of interactions (OD measurements) between the assessed molecule and the reagents used in the procedure. […] After agitation, the OD was measured at 570 nm using a CLARIOstar Plus plate reader (BMG Labtech) and the viability percentage was calculated using the following formula. […]

O=C(Nc1cc(=O)c2ccccc2o1)c1ccc(Br)cc1 [6g, 4-Bromo-N-(4-oxo-4H-chromen-2-yl) benzamide]
melting point: 287 °C | inhibition at 50 µM [1]: 56.2 ± 7.9%

O=C(Nc1cc(=O)c2ccccc2o1)c1ccccc1F [6h, 2-Fluoro-N-(4-oxo-4H-chromen-2-yl) benzamide]
melting point: 194 °C | inhibition at 50 µM [1]: 27.8 ± 10.7%

O=C(Nc1cc(=O)c2ccccc2o1)c1ccccc1Cl [6i, 2-Chloro-N-(4-oxo-4H-chromen-2-yl) benzamide]
melting point: 228 °C | inhibition at 50 µM [1]: 59.3 ± 3.3%

O=C(Nc1cc(=O)c2ccccc2o1)c1ccccc1Br [6j, 2-Bromo-N-(4-oxo-4H-chromen-2-yl) benzamide]
melting point: 215 to 218 °C | inhibition at 50 µM [1]: 36.1 ± 4.1%

O=C(Nc1cc(=O)c2ccccc2o1)c1ccc(F)cc1Cl [6k, 2-Chloro-4-fluoro-N-(4-oxo-4H-chromen-2-yl) benzamide]
melting point: 249 °C | inhibition at 50 µM [1]: 63.2 ± 9.3%

O=C(Nc1cc(=O)c2ccccc2o1)c1ccc(F)c(Cl)c1 [6l, 3-Chloro-4-fluoro-N-(4-oxo-4H-chromen-2-yl) benzamide]
melting point: 224 °C | inhibition at 50 µM [1]: 67.2 ± 5.2%

O=C(Nc1cc(=O)c2ccccc2o1)c1ccc([N+](=O)[O-])cc1 [6m, 4-Nitro-N-(4-oxo-4H-chromen-2-yl) benzamide]
melting point: 323 °C | Biofilm Inhibition (%) [1]: inactive | inhibition at 50 µM [1]: < 10%

O=C(Nc1cc(=O)c2ccccc2o1)c1ccc([N+](=O)[O-])cc1[N+](=O)[O-] [6n, 2,4-Dinitro-N-(4-oxo-4H-chromen-2-yl) benzamide]
melting point: 252 °C | IC50 at 24 h (Cytotoxicity, MTT assay): > 1 mM | Biofilm Inhibition (%) [1]: 90.0 ± 9.9% | inhibition at 50 µM [1]: 90.9 ± 9.9%

O=C(Nc1cc(=O)c2ccccc2o1)c1cc([N+](=O)[O-])cc([N+](=O)[O-])c1 [6o, 3,5-Dinitro-N-(4-oxo-4H-chromen-2-yl) benzamide]
melting point: 291 °C | inhibition at 50 µM [1]: 78.3 ± 4%

COc1ccc(C(=O)Nc2cc(=O)c3ccccc3o2)cc1 [6p, 4-Methoxy-N-(4-oxo-4H-chromen-2-yl) benzamide]
melting point: 227 °C | inhibition at 50 µM [1]: 39.3 ± 17.1%

COc1ccccc1C(=O)Nc1cc(=O)c2ccccc2o1 [6q, 2-Methoxy-N-(4-oxo-4H-chromen-2-yl) benzamide]
melting point: 260 °C | inhibition at 50 µM [1]: 35.2 ± 6.8%

CSc1ccccc1C(=O)Nc1cc(=O)c2ccccc2o1 [6r, 2-(Methylthio)-N-(4-oxo-4H-chromen-2-yl) benzamide]
melting point: 218 °C | inhibition at 50 µM [1]: 60.3 ± 15.8%

COc1ccc(C(=O)Nc2cc(=O)c3ccccc3o2)cc1OC [6s, 3,4-Dimethoxy-N-(4-oxo-4H-chromen-2-yl) benzamide]
melting point: 246 °C | inhibition at 50 µM [1]: 71.9 ± 13.5%

COc1cc(OC)cc(C(=O)Nc2cc(=O)c3ccccc3o2)c1 [6t, 3,5-Dimethoxy-N-(4-oxo-4H-chromen-2-yl) benzamide]
melting point: 198 °C | inhibition at 50 µM [1]: 43.8 ± 2.4%

O=C(Nc1cc(=O)c2ccccc2o1)c1ccc(N2CCOCC2)cc1 [6u, 4-Morpholino-N-(4-oxo-4H-chromen-2-yl) benzamide]
melting point: 287 °C | inhibition at 50 µM [1]: 56.8 ± 10%

O=C(Nc1cc(=O)c2ccccc2o1)c1ncccn1 [6v, N-(4-Oxo-4H-chromen-2-yl) pyrimidine-2-carboxamide]
melting point: 215 °C | inhibition at 50 µM [1]: 48.8 ± 2.6%

CCCC(=O)Nc1cc(=O)c2ccccc2o1 [6w, N-(4-Oxo-4H-chromen-2-yl) butyramide]
melting point: 212 °C | inhibition at 50 µM [1]: 56.4 ± 7.2%

O=C(Nc1cc(=O)c2ccccc2o1)C1CCCCC1 [6x, N-(4-Oxo-4H-chromen-2-yl)cyclohexanecarboxamide]
melting point: 241 °C | inhibition at 50 µM [1]: 48.7 ± 5.3%

O=C(Nc1cc(=O)c2ccccc2o1)C12CC3CC(CC(C3)C1)C2 [6y, (3R,5R,7R)-N-(4-Oxo-4H-chromen-2-yl) adamantane-1-carboxamide]
melting point: 286 °C | inhibition at 50 µM [1]: 19.5 ± 1.8%
